The text below walks through data of ChEMBL document CHEMBL1759941, “Discovery of pyrrolo[2,3-d]pyrimidin-4-ones as corticotropin-releasing factor 1 receptor antagonists with a carbonyl-based hydrogen bonding acceptor” (Bioorg Med Chem Lett, 2011).

SMILES strings stand for the structures.

What is called IC50 is the point on the concentration scale where inhibition reaches its midpoint. Low readings indicate greater potency in that assay, high ones weaker potency in that assay. Broadly, the inhibition in vivo is the change of the read-out against control, counted positive when it falls. Low values mean little suppression, high ones strong suppression.

The target of data set [1] is T1, Corticotropin-releasing factor receptor 1 (Homo sapiens, UniProt P34998).
T1 sequence (P34998 whole entry): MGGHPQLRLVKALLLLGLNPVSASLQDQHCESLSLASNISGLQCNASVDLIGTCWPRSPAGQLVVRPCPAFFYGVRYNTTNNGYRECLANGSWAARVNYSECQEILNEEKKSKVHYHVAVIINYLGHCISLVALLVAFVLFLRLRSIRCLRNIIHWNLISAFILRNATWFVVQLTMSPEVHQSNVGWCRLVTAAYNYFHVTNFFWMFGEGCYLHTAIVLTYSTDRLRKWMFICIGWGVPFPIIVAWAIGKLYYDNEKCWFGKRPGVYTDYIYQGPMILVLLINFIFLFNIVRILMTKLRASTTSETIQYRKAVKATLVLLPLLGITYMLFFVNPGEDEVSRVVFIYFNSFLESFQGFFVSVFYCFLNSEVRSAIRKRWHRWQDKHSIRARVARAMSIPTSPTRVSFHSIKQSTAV
Put plainly: Displacement of ovine [125I]CRF from human CRF1 receptor expressed in CHO cells. The data set is classed as cell-based.

In data set [2] the test system is Mus musculus. In words: Ex vivo displacement of [125I]-sauvagine from CRF1 receptor in mouse frontal cortex at 30 mg/kg, po administered 60 mins before mouse decapitation and measured after 2 hrs by gamma scintillation counting. It counts as functional.
Data set [3] has as its system Mus musculus. In words: Ex vivo displacement of [125I]-sauvagine from CRF1 receptor in mouse Olfactory bulb at 30 mg/kg, po administered 60 mins before mouse decapitation and measured after 2 hrs by gamma scintillation counting. It counts as functional.
Data set [4] deals with Mus musculus. Put plainly: Ex vivo displacement of [125I]-sauvagine from CRF1 receptor in mouse pituitary gland at 30 mg/kg, po administered 60 mins before mouse decapitation and measured after 2 hrs by gamma scintillation counting. The data set is classed as functional. On the technique in general: Displacement assays read how much labelled ligand stays bound in the presence of the test substance.

Data set [5] can be described thus: Ratio of drug uptake in brain to plasma of mouse at 30 mg/kg, po. The data set is classed as ADME, organism-based. Set-up: dose 30 mg/kg, route oral. As to conditions: read-out: BBB.

Take `CCN(CC)c1nc2c(c(-c3c(C)cc(C)cc3C)cn2C)c(=O)n1C`: in data set [1], the half-maximal inhibitory concentration (IC50) came out at 7700 nM. As for `CCCN(CCC)c1nc2c(c(-c3c(C)cc(C)cc3C)cn2C)c(=O)n1C`, in data set [1], the half-maximal inhibitory concentration (IC50) is 120 nM. In addition, the inhibition in vivo at 30 mg/kg in the data set on Mus musculus [2] came out at 35%; with Mus musculus [3] it was 22%; in the data set with Mus musculus [4], 53%. Also, in data set [5], the Kp came to 0.42. In turn, `CCCCN(CCCC)c1nc2c(c(-c3c(C)cc(C)cc3C)cn2C)c(=O)n1C` had an IC50 in data set [1] of 970 nM.

For `Cc1cc(C)c(-c2cn(C)c3nc(N(CC4CC4)CC4CC4)n(C)c(=O)c23)c(C)c1`, the half-maximal inhibitory concentration (IC50) in data set [1] was 140 nM. For the molecule `Cc1cc(C)c(-c2cn(C)c3nc(N4CCCCC4)n(C)c(=O)c23)c(C)c1`, the IC50 in data set [1] amounted to 3800 nM.

For the molecule `CCCN(CCC)c1nc2c(c(-c3c(C)cc(C)cc3C)c(C)n2C)c(=O)n1C`, the IC50 in data set [1] came to 1100 nM. Turning to `CCCN(CCC)c1nc2c(c(-c3ccc(C)cc3C)c(C)n2C)c(=O)n1C`, the IC50 in data set [1] turned out to be 3300 nM. `CCCN(CCC)c1nc2c(c(-c3ccc(C)cc3C)cn2C)c(=O)n1C` registered an IC50 in data set [1] of 1600 nM. Still for that read-out and setting: to `CCCN(CCC)c1nc2c(c(-c3c(OC)cc(OC)cc3OC)cn2C)c(=O)n1C` belongs 3100 nM; to `CCCN(CCC)c1nc2c(c(-c3ccc(OC)cc3OC)cn2C)c(=O)n1C`, 3000 nM. Still for that read-out and setting: next, `CCCN(CCC)c1nc2c(c(-c3ccc(C(F)(F)F)cc3C(F)(F)F)cn2C)c(=O)n1C`: 3000 nM. Regarding `CCC(CC)Oc1cc(C)nc(Oc2c(C)cc(C)cc2C)c1C`, the half-maximal inhibitory concentration (IC50) in data set [1] worked out at 92 nM. Turning to `CCCCN(CC)c1nc(C)nc2c1c(C)cn2-c1c(C)cc(C)cc1C` [CP-154526], the 50% inhibitory concentration (IC50) in data set [1] was 11 nM.
